Experimental data as given in patent US8637501B2, “Azinone-substituted azepino[b]indole and pyrido-pyrrolo-azepine MCH-1 antagonists, methods of making, and use thereof” (Albany Molecular Research, Inc., priority 2009, dated 2014).

Tests used:
human MCH-1 receptor = human MCH-1 receptor (Homo sapiens (Human), UniProt Q99705); test: Binding Assay for Human Melanin-Concentrating Hormone (MCH-1) Receptor; conditions: radioligand displacement, membranes from CHO-K1 cells expressing human MCH-1 receptor; Ki from IC50 by Cheng Prusoff equation; read-out: MCH1 Ki
Sequence of human MCH-1 receptor (Q99705 whole entry): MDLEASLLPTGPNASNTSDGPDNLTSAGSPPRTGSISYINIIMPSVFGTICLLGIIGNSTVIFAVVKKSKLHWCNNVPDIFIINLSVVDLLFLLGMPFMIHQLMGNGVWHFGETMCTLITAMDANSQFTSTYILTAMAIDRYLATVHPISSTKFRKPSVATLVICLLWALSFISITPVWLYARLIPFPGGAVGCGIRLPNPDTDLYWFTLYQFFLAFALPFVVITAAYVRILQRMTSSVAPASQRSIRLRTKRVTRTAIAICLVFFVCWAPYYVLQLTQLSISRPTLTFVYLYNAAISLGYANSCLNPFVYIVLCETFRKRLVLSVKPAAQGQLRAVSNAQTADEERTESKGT
Summary of the method: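 Membranes from CHO-K1 cells stably expressing human MCH-1 incubated 60 min at 25 °C with 1.4 nM tritiated indazolyl-pyridinone radioligand in 50 mM Tris-HCl pH 7.4. Bound counts by filtration and scintillation; IC50 and nH by Hill fit, Ki by Cheng–Prusoff.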

Ki (human MCH-1 receptor) [nM] | melting point | Compound
74 | 270 to 274 °C | Cl.Cn1c2c(c3ccc(-n4ncc(OCc5ccc(C(F)(F)F)nc5)cc4=O)cc31)CCNCC2 [Example 47, 2-(6-Methyl-1,2,3,4,5,6-hexahydroazepino[4,5-b]indol-8-yl)-5-((6-(trifluoromethyl)pyridin-3-yl)methoxy)pyridazin-3(2H)-one hydrochloride]
60 | 88 to 94 °C | CC(=O)N1CCc2c(n(C)c3cc(-n4ccc(OCc5ccc(F)cn5)cc4=O)ccc23)CC1.Cl [Example 48, 1-(3-Acetyl-6-methyl-1,2,3,4,5,6-hexahydroazepino[4,5-b]indol-8-yl)-4-((5-fluoropyridin-2-yl)methoxy)pyridin-2(1H)-one]
112 | 250 to 254 °C | CC(=O)N1CCc2[nH]c3cc(-n4ccc(OCc5ccccc5)cc4=O)ccc3c2CC1 [Example 54, 1-(3-Acetyl-1,2,3,4,5,6-hexahydroazepino[4,5-b]indol-8-yl)-4-(benzyloxy)pyridin-2(1H)-one]
27 | 178 to 180 °C | Cl.Cn1c2c(c3ccc(-n4ccc(OCc5ncc(Cl)cc5Cl)cc4=O)cc31)CCNCC2 [Example 56, 4-((3,5-Dichloropyridin-2-yl)methoxy)-1-(6-methyl-1,2,3,4,5,6-hexahydroazepino[4,5-b]indol-8-yl)pyridin-2(1H)-one hydrochloride]
57 | 78 to 83 °C | CC(=O)N1CCCc2c(c3ccc(-n4ccc(OCc5ccc(F)cn5)cc4=O)cc3n2C)C1 [Example 61, 1-(2-Acetyl-6-methyl-1,2,3,4,5,6-hexahydroazepino[4,3-b]indol-8-yl)-4-((5fluoropyridin-2-yl)methyoxy)pyridin-2(1H)-one]
60 | 156 to 162 °C | CC(=O)N1CCCc2c(c3ccc(-n4ccc(-c5ccc(C(F)(F)F)nc5)cc4=O)cc3n2C)C1 [Example 62, 1-(2-Acetyl-6-methyl-1,2,3,4,5,6-hexahydroazepino[4,3-b]indol-8-yl)-4-(6-(trifluoromethyl)pyridin-3-yl)pyridin-2(1H)-one]
5 | 260 to 266 °C | Cl.Cn1c2c(c3ccc(-n4ccc(OCc5ccc(Cl)cn5)cc4=O)cc31)CNCCC2 [Example 63, 4-((5-Chloropyridin-2-yl)methoxy)-1-(6-methyl-1,2,3,4,5,6-hexahydroazepino[4,3-b]indol-8-yl)pyridin-2(1H)-one hydrochloride]
4.6 | 252 to 257 °C | Cl.Cn1c2c(c3ccc(N4CCN(CCc5ccc(Cl)cc5)CC4=O)cc31)CNCCC2 [Example 64, 4-(4-Chlorophenethyl)-1-(6-methyl-1,2,3,4,5,6-hexahydroazepino[4,3-b]indol-8-yl)piperazin-2-one hydrochloride]
7.3 | 272 to 280 °C | Cl.Cn1c2c(c3ccc(-n4ccc(OCc5ccc(F)cc5F)cc4=O)cc31)CNCCC2 [Example 66, 4-(2,4-Difluorobenzyloxy)-1-(6-methyl-1,2,3,4,5,6-hexahydroazepino[4,3-b]indol-8-yl)pyridin-2(1H)-one hydrochloride]
22 | 251 to 256 °C | Cl.Cn1c2c(c3ccc(-n4ccc(OCc5ncc(Cl)cc5Cl)cc4=O)cc31)CNCCC2 [Example 67, 4-((3,5-Dichloropyridin-2-yl)methoxy)-1-(6-methyl-1,2,3,4,5,6-hexahydroazepino[4,3-b]indol-8-yl)pyridin-2(1H)-one dihydrochloride]
8.2 | 191 to 200 °C | Cl.Cn1c2c(c3ccc(-n4ccc(OCc5ccc(Cl)cc5F)cc4=O)cc31)CNCCC2 [Example 68, 4-(4-Chloro-2-fluorobenzyloxy)-1-(6-methyl-1,2,3,4,5,6-hexahydroazepino[4,3-b]indol-8-yl)pyridin-2(1H)-one hydrochloride]
7.5 | 260 to 265 °C | Cl.Cn1c2c(c3ccc(-n4ccc(OCc5ccc(F)cn5)cc4=O)cc31)CN(C1CCC1)CCC2 [Example 72, 1-(2-Cyclobutyl-6-methyl-1,2,3,4,5,6-hexahydroazepino[4,3-b]indol-8-yl)-4-((5-fluoropyridin-2-yl)methoxy)pyridin-2(1H)-one hydrochloride]
10 | 211 to 220 °C | CN1CCCc2c(c3ccc(N4CCN(CCc5ccc(F)cc5)CC4=O)cc3n2C)C1.Cl [Example 74, 1-(2,6-Dimethyl-1,2,3,4,5,6-hexahydroazepino[4,3-b]indol-8-yl)-4-(4-fluorophenethyl)piperazin-2-one hydrochloride]
14 | 194 to 205 °C | Cl.Cn1c2c(c3ccc(N4CCN(CCc5ccc(F)cc5)CC4=O)cc31)CN(C1CCC1)CCC2 [Example 75, 1-(2-Cyclobutyl-6-methyl-1,2,3,4,5,6-hexahydroazepino[4,3-b]indol-8-yl)-4-(4-fluorophenethyl)piperazin-2-one hydrochloride]
9.8 | 190 to 205 °C | CCN1CCCc2c(c3ccc(N4CCN(CCc5ccc(F)cc5)CC4=O)cc3n2C)C1.Cl [Example 76, 1-(2-Ethyl-6-methyl-1,2,3,4,5,6-hexahydroazepino[4,3-b]indol-8-yl)-4-(4-fluorophenethyl)piperazin-2-one hydrochloride]
11 | 180 to 185 °C (dec.) | Cl.Cn1c2c(c3ccc(-n4ccc(OCc5ccccc5)cc4=O)nc31)CCNCC2 [Example 77, 4-(Benzyloxy)-1-(10-methyl-5,6,7,8,9,10-hexahydropyrido[3′,2′:4,5]pyrrolo[2,3-d]azepin-2-yl)pyridin-2(1H)-one hydrochloride]
29 | 320 to 325 °C (dec.) | Cl.Cn1c2c(c3ccc(-n4ccc(-c5ccc(C(F)(F)F)nc5)cc4=O)nc31)CCNCC2 [Example 78, 1-(10-Methyl-5,6,7,8,9,10-hexahydropyrido[3′,2′:4,5]pyrrolo[2,3-d]azepin-2-yl)-4-(6-(trifluoromethyl)pyridin-3-yl)pyridin-2(1H)-one hydrochloride]
235 | 300 to 305 °C (dec.) | Cl.Cn1c2c(c3ccc(-n4ccc(-c5ccc(C(F)(F)F)nn5)cc4=O)nc31)CCNCC2 [Example 79, 1-(10-Methyl-5,6,7,8,9,10-hexahydropyrido[3′,2′:4,5]pyrrolo[2,3-d]azepin-2-yl)-4-(6-(trifluoromethyl)pyridazin-3-yl)pyridin-2(1H)-one hydrochloride]
69 | 310 to 314 °C (dec.) | Cl.Cn1c2c(c3ccc(-n4ccc(-c5ccc(C(F)(F)F)cn5)cc4=O)nc31)CCNCC2 [Example 80, 1-(10-Methyl-5,6,7,8,9,10-hexahydropyrido[3′,2′:4,5]pyrrolo[2,3-d]azepin-2-yl)-4-(5-(trifluoromethyl)pyridin-2-yl)pyridin-2(1H)-one hydrochloride]
33 | 238 to 240 °C | Cl.Cn1c2c(c3ccc(-n4ccc(OCc5ccc(F)cn5)cc4=O)nc31)CCNCC2 [Example 81, 4-((5-Fluoropyridin-2-yl)methoxy)-1-(10-methyl-5,6,7,8,9,10-hexahydropyrido[3′,2′:4,5]pyrrolo[2,3-d]azepin-2-yl)pyridin-2(1H)-one hydrochloride]
53 | 226 to 230 °C (dec.) | Cl.Cn1c2c(c3ccc(-n4ncc(OCc5ccc(F)cn5)cc4=O)nc31)CCNCC2 [Example 82, 5-((5-Fluoropyridin-2-yl)methoxy)-2-(10-methyl-5,6,7,8,9,10-hexahydropyrido[3′,2′:4,5]pyrrolo[2,3-d]azepin-2-yl)pyridazin-3(2H)-one hydrochloride]
15 | 308 to 312 °C | Cl.Cn1c2c(c3ccc(-n4ccc(-c5ccc(C(F)(F)F)nc5)cc4=O)nc31)CNCCC2 [Example 89, 1-(10-Methyl-5,6,7,8,9,10-hexahydropyrido[3′,2′:4,5]pyrrolo[3,2-c]azepin-2-yl)-4-(6-(trifluoromethyl)pyridin-3-yl)pyridin-2(1H)-one hydrochloride]
6.4 | 328 to 332 °C | Cl.Cn1c2c(c3ccc(-n4ccc(OCc5ccccc5)cc4=O)nc31)CNCCC2 [Example 90, 4-(Benzyloxy)-1-(10-methyl-5,6,7,8,9,10-hexahydropyrido[3′,2′:4,5]pyrrolo[3,2-c]azepin-2-yl)pyridin-2(1H)-one hydrochloride]
22 | 215 to 225 °C | Cl.Cn1c2c(c3ccc(-n4ccc(OCc5ncc(F)cc5F)cc4=O)cc31)CCNCC2 [Example 102, 4-((3,5-Difluoropyridin-2-yl)methoxy)-1-(6-methyl-1,2,3,4,5,6-hexahydroazepino[4,5-b]indol-8-yl)pyridin-2(1H)-one hydrochloride]
18 | 180 to 190 °C | Cl.Cn1c2c(c3ccc(-n4ccc(OCc5ncc(F)cc5F)cc4=O)cc31)CNCCC2 [Example 106, 4-((3,5-Difluoropyridin-2-yl)methoxy)-1-(6-methyl-1,2,3,4,5,6-hexahydroazepino[4,3-b]indol-8-yl)pyridin-2(1H)-one hydrochloride]
